In ChEMBL document CHEMBL5303573, “Mapping human microbiome drug metabolism by gut bacteria and their genes” (Nature, 2019):

Columns and labels:
[1] = The drug is tested on Bifidobacterium breve strain: DSM20213 for biotransformation. The drug concentrations were measured before and after a 12-h incubation by liquid-chromatography-coupled mass spectrometry (LC–MS); details: 2 µM
[2] = The drug is tested on Bifidobacterium longum subsp. Infantis strain: CCUG52486 for biotransformation. The drug concentrations were measured before and after a 12-h incubation by liquid-chromatography-coupled mass spectrometry (LC–MS); details: 2 µM
[3] = The drug is tested on Bifidobacterium ruminantium strain: fecal isolate for biotransformation. The drug concentrations were measured before and after a 12-h incubation by liquid-chromatography-coupled mass spectrometry (LC–MS); details: 2 µM
[4] = The drug is tested on Collinsella intestinalis strain: DSM13280 for biotransformation. The drug concentrations were measured before and after a 12-h incubation by liquid-chromatography-coupled mass spectrometry (LC–MS); details: 2 µM
[5] = The drug is tested on Bacteroides caccae strain: ATCC43185 for biotransformation. The drug concentrations were measured before and after a 12-h incubation by liquid-chromatography-coupled mass spectrometry (LC–MS); details: 2 µM
[6] = The drug is tested on Bacteroides fragilis strain: HMW610 for biotransformation. The drug concentrations were measured before and after a 12-h incubation by liquid-chromatography-coupled mass spectrometry (LC–MS); details: 2 µM
[7] = The drug is tested on Bacteroides pectinophilus strain: ATCC43243 for biotransformation. The drug concentrations were measured before and after a 12-h incubation by liquid-chromatography-coupled mass spectrometry (LC–MS); details: 2 µM
[8] = The drug is tested on Odoribacter splanchnicus strain: fecal isolate for biotransformation. The drug concentrations were measured before and after a 12-h incubation by liquid-chromatography-coupled mass spectrometry (LC–MS); details: 2 µM
[9] = The drug is tested on Clostridium asparagiforme strain: DSM15981 for biotransformation. The drug concentrations were measured before and after a 12-h incubation by liquid-chromatography-coupled mass spectrometry (LC–MS); assay type: ADME; design: dose 2 uM, timepoint 0 vs 12 hours; details: enterocloster asparagiformis, 2 µM
[10] = The drug is tested on Clostridium scindens strain: ATCC35704 for biotransformation. The drug concentrations were measured before and after a 12-h incubation by liquid-chromatography-coupled mass spectrometry (LC–MS); details: 2 µM
[11] = The drug is tested on Eubacterium hallii strain: DSM3353 for biotransformation. The drug concentrations were measured before and after a 12-h incubation by liquid-chromatography-coupled mass spectrometry (LC–MS); details: anaerobutyricum hallii, 2 µM
[12] = The drug is tested on Enterobacter cancerogenus strain: ATCC35316 for biotransformation. The drug concentrations were measured before and after a 12-h incubation by liquid-chromatography-coupled mass spectrometry (LC–MS); details: 2 µM
[13] = The drug is tested on Escherichia coli strain: BW25113 for biotransformation. The drug concentrations were measured before and after a 12-h incubation by liquid-chromatography-coupled mass spectrometry (LC–MS); details: 2 µM
[14] = bifidobacterium adolescentis, 12 h, 2 µM
Description: The drug is tested on Bifidobacterium adolescentis strain: ATCC 15703 for biotransformation. The drug concentrations were measured before and after a 12-h incubation by liquid-chromatography-coupled mass spectrometry (LC–MS)

[15] = bacteroides intestinalis, 12 h, 2 µM
Description: The drug is tested on Bacteroides intestinalis strain: DSM17393 for biotransformation. The drug concentrations were measured before and after a 12-h incubation by liquid-chromatography-coupled mass spectrometry (LC–MS)

[16] = bacteroides stercoris, 12 h, 2 µM
Description: The drug is tested on Bacteroides stercoris strain: ATCC43183 for biotransformation. The drug concentrations were measured before and after a 12-h incubation by liquid-chromatography-coupled mass spectrometry (LC–MS)

[17] = bacteroides thetaiotaomicron, 12 h, 2 µM
Description: The drug is tested on Bacteroides thetaiotaomicron strain: VPI-5482 for biotransformation. The drug concentrations were measured before and after a 12-h incubation by liquid-chromatography-coupled mass spectrometry (LC–MS)

[18] = bacteroides thetaiotaomicron, 12 h, 2 µM; remark: listed apart in the source
Description: The drug is tested on Bacteroides thetaiotaomicron strain: 3731 for biotransformation. The drug concentrations were measured before and after a 12-h incubation by liquid-chromatography-coupled mass spectrometry (LC–MS)

[19] = parabacteroides distasonis, 12 h, 2 µM
Description: The drug is tested on Parabacteroides distasonis strain: ATCC8503 for biotransformation. The drug concentrations were measured before and after a 12-h incubation by liquid-chromatography-coupled mass spectrometry (LC–MS)

[20] = limosilactobacillus reuteri cf48-3a, 12 h, 2 µM
Description: The drug is tested on Lactobacillus reuteri CF48-3A strain: BEI HM-102 for biotransformation. The drug concentrations were measured before and after a 12-h incubation by liquid-chromatography-coupled mass spectrometry (LC–MS)

| SMILES | Bacterial Biotransformation [1] | Bacterial Biotransformation [2] | Bacterial Biotransformation [3] | Bacterial Biotransformation [4] | Bacterial Biotransformation [5] | Bacterial Biotransformation [6] | Bacterial Biotransformation [7] | Bacterial Biotransformation [8] | Bacterial Biotransformation [9] | Bacterial Biotransformation [10] | Bacterial Biotransformation [11] | Bacterial Biotransformation [12] | Bacterial Biotransformation [13] | Bacterial Biotransformation [14] | Bacterial Biotransformation [15] | Bacterial Biotransformation [16] | Bacterial Biotransformation [17] | Bacterial Biotransformation [18] | Bacterial Biotransformation [19] | Bacterial Biotransformation [20] |
| --- | --- | --- | --- | --- | --- | --- | --- | --- | --- | --- | --- | --- | --- | --- | --- | --- | --- | --- | --- | --- |
| CCN(CC)C(=O)/C(C#N)=C/c1cc(O)c(O)c([N+](=O)[O-])c1 [ENTACAPONE] | Compound metabolized | Compound metabolized | Compound metabolized | Compound metabolized | Compound metabolized | Compound metabolized | Compound metabolized | Compound metabolized | Compound metabolized | Compound metabolized | Compound metabolized | Compound metabolized | Compound metabolized | Compound metabolized | Compound metabolized | Compound metabolized | Compound metabolized | Compound metabolized | Compound metabolized | Compound metabolized |
| CCOc1ccc2nc(S(N)(=O)=O)sc2c1 [ETHOXZOLAMIDE] | Compound metabolized | Compound metabolized | Compound metabolized | Compound metabolized | Compound metabolized | Compound NOT metabolized | Compound metabolized | Compound metabolized | Compound metabolized | Compound metabolized | Compound metabolized | Compound metabolized | Compound metabolized | Compound metabolized | Compound metabolized | Compound metabolized | Compound metabolized | Compound metabolized | Compound metabolized | Compound metabolized |
| CNCCC(Oc1ccc(C(F)(F)F)cc1)c1ccccc1 (stereo not given) [FLUOXETINE] | Compound metabolized | Compound metabolized | Compound metabolized | Compound NOT metabolized | Compound metabolized | Compound metabolized | Compound metabolized | Compound metabolized | Compound metabolized | Compound NOT metabolized | Compound metabolized | Compound metabolized | Compound metabolized | Compound metabolized | Compound metabolized | Compound metabolized | Compound metabolized | Compound metabolized | Compound metabolized | Compound metabolized |
| CC[C@@H](CO)NC(=O)[C@@H]1C=C2c3cccc4c3c(cn4C)C[C@H]2N(C)C1.O=C(O)/C=C\C(=O)O [METHYSERGIDE MALEATE] | Compound metabolized | Compound metabolized | Compound metabolized | Compound NOT metabolized | Compound metabolized | Compound NOT metabolized | Compound metabolized | Compound metabolized | Compound metabolized | Compound metabolized | Compound metabolized | Compound metabolized | Compound metabolized | Compound metabolized | Compound metabolized | Compound metabolized | Compound metabolized | Compound metabolized | Compound metabolized | Compound metabolized |
| COc1c(C)c2c(c(O)c1C/C=C(\C)CCC(=O)OCCN1CCOCC1)C(=O)OC2 [MYCOPHENOLATE MOFETIL] | Compound metabolized | Compound metabolized | Compound metabolized | Compound metabolized | Compound metabolized | Compound metabolized | Compound metabolized | Compound metabolized | Compound metabolized | Compound metabolized | Compound metabolized | Compound metabolized | Compound metabolized | Compound metabolized | Compound metabolized | Compound metabolized | Compound metabolized | Compound metabolized | Compound metabolized | Compound metabolized |
| CCOC(=O)C1=C(C)NC(C)=C(C(=O)OC)C1c1cccc([N+](=O)[O-])c1 (stereo not given) [NITRENDIPINE] | Compound metabolized | Compound metabolized | Compound metabolized | Compound metabolized | Compound metabolized | Compound metabolized | Compound metabolized | Compound metabolized | Compound metabolized | Compound metabolized | Compound metabolized | Compound NOT metabolized | Compound metabolized | Compound metabolized | Compound metabolized | Compound metabolized | Compound metabolized | Compound metabolized | Compound metabolized | Compound metabolized |
| COc1ccc2[nH]c([S+]([O-])Cc3ncc(C)c(OC)c3C)nc2c1 (stereo not given) [OMEPRAZOLE] | Compound metabolized | Compound metabolized | Compound metabolized | Compound metabolized | Compound metabolized | Compound metabolized | Compound metabolized | Compound metabolized | Compound metabolized | Compound metabolized | Compound metabolized | Compound metabolized | Compound metabolized | Compound metabolized | Compound metabolized | Compound metabolized | Compound metabolized | Compound metabolized | Compound metabolized | Compound metabolized |
| Cc1nc2n(c(=O)c1CCN1CCC(c3noc4cc(F)ccc34)CC1)CCCC2O (stereo not given) [PALIPERIDONE] | Compound metabolized | Compound metabolized | Compound metabolized | Compound NOT metabolized | Compound metabolized | Compound NOT metabolized | Compound NOT metabolized | Compound metabolized | Compound metabolized | Compound metabolized | Compound metabolized | Compound metabolized | Compound metabolized | Compound NOT metabolized | Compound metabolized | Compound metabolized | Compound NOT metabolized | Compound metabolized | Compound metabolized | Compound NOT metabolized |
